Results from US20220402862A1 (Intellia Therapeutics, Inc., priority 2019, published 2022).

Key:
[1] = RNA encapsulation efficiency of LNPs (Ribogreen fluorescence assay); type: physicochemical; details: for % E: sg:mRNA 1:2, N/P about 6, 50/9/38/3, TTR sgRNA (SEQ ID NO: 4), Table 6, Experiments 106-107
Method in brief: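 LNPs were diluted in 1× TE with 0.2% Triton X-100 (total RNA) or without it (free RNA), stained with RiboGreen for ~10 min at room temperature in the dark, and read at Ex 488/Em 525 nm against standard curves of the starting RNA. Encapsulation efficiency = (Total − Free)/Total.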

[2] = Dynamic light scattering of LNPs: Z-average diameter, number average diameter, PDI; type: physicochemical
Method in brief: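 LNP samples were diluted in PBS and measured by DLS to give intensity-based Z-average diameter, number average diameter and polydispersity index. PDI describes size spread around the mean, with zero meaning a uniform population.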

[3] = system: Transthyretin (TTR); assay: Serum TTR ELISA in mice after LNP dosing; type: in vivo, CD-1 female mice; details: for Serum TTR % TSS: mouse serum TTR relative to TSS control; for Serum TTR: mouse serum
Method in brief: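 Female CD-1 mice, 6–10 weeks, given LNPs by tail-vein injection (~10 mL/kg), 0.1 mg/kg unless noted; serum taken at day 6 or 7 by cardiac puncture. Total mouse TTR by ELISA on sera diluted 10,000-fold (0.1 mg/kg) or 10,000- and 2,500-fold (0.3 mg/kg).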

[4] = system: TTR rat gene; assay: In vivo editing in rat liver, sgRNA targeting TTR (G534), % indel by NGS; parameters: species or system Sprague Dawley female rats; details: G534 sgRNA + Cas9 mRNA LNP, Experiment 109
Protocol: Sprague Dawley female rats ranging from 6-7 weeks of age were used in each study. Each animal was weighed and dosing solutions were prepared based on body weight. LNPs were dosed via the lateral tail vein in a volume of 0.35 mL per animal (approximately 2 mL per kilogram body weight). The animals were periodically observed for adverse effects for at least 24 hours post dose.
For studies measuring in vivo editing in liver, animals were dosed at 0.1 mg/kg or 0.3 mg/kg. Animals were euthanized by CO2 asphyxiation 6 days post dose. At necropsy, the liver was collected for editing analysis by NGS and blood was collected into serum separator tubes for serum TTR measurement.
(§1) In brief, to quantitatively determine the efficiency of editing at the target location in the genome, genomic DNA was isolated and deep sequencing was utilized to identify the presence of insertions and deletions introduced by gene editing.
(§2) PCR primers were designed around the target site (e.g., within B2M), and the genomic area of interest was amplified. Additional PCR was performed according to the manufacturer's protocols (Illumina) to add the necessary chemistry for sequencing. The amplicons were sequenced on an Illumina MiSeq instrument. The reads were aligned to the mouse or rat reference genome (e.g., GRCm38) after eliminating those having low quality scores. The resulting files containing the reads were mapped to the reference genome (BAM files), where reads that overlapped the target region of interest were selected and the number of wild type reads versus the number of reads which contain an insertion, substitution, or deletion was calculated.
(§3) The editing percentage (e.g., the “indel efficiency” or “percent indels”) was defined as the total number of sequence reads with insertions or deletions over the total number of sequence reads, including wild type.
In vivo delivery in a rat model was assessed by measuring editing efficiency for materials delivered with formulations including various amine lipid compounds. Cas9 mRNA (SEQ ID NO: 6) was formulated as LNPs with an sgRNA targetting the TTR rat gene (G534, SEQ ID NO: 5). LNPs were formulated and characterized as described in Example 123. Analysis of average particle size, polydispersity (PDI), total RNA content and encapsulation efficiency of RNA are shown in Table 10.
Sprague Dawley female rats were dosed i.v. at 0.1 or 0.3 mg/kg and assessed for editing in liver.

[5] = system: Transthyretin (TTR); assay: Serum TTR measurement in rats after LNP dosing; type: in vivo, Sprague Dawley female rats; details: Experiment 109; for Serum TTR % TSS: rat serum TTR relative to TSS control; for Serum TTR: rat serum, G534 sgRNA + Cas9 mRNA LNP
[6] = pKa measurement of unformulated amine lipid (fluorescence, method of Jayaraman et al.); type: physicochemical; details: 100 μM in 0.1 M phosphate buffer, pH 2.0-12.0
Protocol: The pKa of each amine lipid was determined according to the method in Jayaraman, et al. (Angewandte Chemie, 2012) with the following adaptations. […] Lipid was diluted to 100 μM in 0.1 M phosphate buffer (Boston Bioproducts) where the pH ranged from 2.0-12.0. Fluorescence intensity was measured using excitation and emission wavelengths of 321 nm and 448 nm.

[7] = system: mouse TTR gene; assay: In vivo editing in mouse liver, sgRNA targeting TTR (G282 or G502), % indel by NGS; parameters: species or system CD-1 female mice; details: guide G502, i.v. 0.1 mg/kg, sgRNA:Cas9 mRNA 1:2 w/w, experiments 106, 107
Protocol: CD-1 female mice ranging from 6-10 weeks of age were used in each study. Animals were weighed and grouped according to body weight for preparing dosing solutions based on group average weight. LNPs were dosed via the lateral tail vein in a volume of 0.2 mL per animal (approximately 10 mL per kilogram body weight). The animals were periodically observed for adverse effects for at least 24 hours post dose. For studies measuring in vivo editing in liver, CD-1 female mice were dosed at 0.1 mg/kg unless otherwise noted. Animals were euthanized at 6 or 7 days by ex sanguination via cardiac puncture under isoflurane anesthesia. Liver tissue was collected from each animal for DNA extraction and analysis. Blood was collected into serum separator tubes or into tubes containing buffered sodium citrate for plasma as described herein. Cohorts of mice were measured for editing by Next-Generation Sequencing (NGS).
as §1, §2, §3
We assessed in vivo editing efficiency for materials delivered with formulations including various amine lipid compounds. Editing was measured using either G282 (SEQ ID No: 1) which targets the mouse TTR gene or G650 (SEQ ID No. 2) which targets the mouse B2M gene. Lipids described above were assessed for efficacy through in vivo editing experiments. LNPs were formulated at a 1:1 or 1:1.3 w/w ratio of sgRNA to Cas9 mRNA, and at an N/P ratio of about 6. Molar concentrations of lipids in the lipid component of the LNPs are used at mol % amine lipid/DSPC/cholesterol/PEG-2k-DMG of 50/9/38/3. The final LNPs were characterized to determine the encapsulation efficiency, polydispersity index, and average particle size according to the analytical methods provided above. Analysis of average particle size, polydispersity (PDI), total RNA content and encapsulation efficiency of RNA are shown in Table 2.
To assess whether the editing was dose responsive, experiments were performed in vivo at various LNP dose levels. Cas9 mRNA of Example 120 was formulated as LNPs with an sgRNA targeting TTR (G282, SEQ ID NO: 1; or G502, SEQ ID NO: 4).
We assessed in vivo delivery by measuring editing efficiency for materials delivered with formulations that included various amine lipid compounds. Cas9 mRNA (SEQ ID NO: 6) was formulated as LNPs with an sgRNA targetting the TTR mouse gene (SEQ ID NO: 4). LNPs were formulated at a 1:2 w/w ratio of sgRNA to Cas9 mRNA, and at an N/P ratio of about 6. Molar concentrations of lipids in the lipid component of the LNPs are used at mol % amine lipid/DSPC/cholesterol/PEG-2k-DMG of 50/9/38/3. The final LNPs compositions were characterized and analyzed as described in Example 120. Analysis of average particle size, polydispersity (PDI), total RNA content and encapsulation efficiency of RNA are shown in Table 6.

[8] = LNP with G534 sgRNA and Cas9 mRNA, sg:mRNA 1:2, experiment 109
[9] = LNP, sg:mRNA 1:1, N/P about 6, 50/9/38/3, Table 2, Experiments 2-20
[10] = LNP, sg:mRNA 1:2, N/P about 6, 50/9/38/3, Table 6, Experiments 106-107

Row | Structure (SMILES) | pKa [6] | % E ([1]; LNP) [%] | Number mean (nm) [2, 10] [nm] | PDI [2, 10] | Z-avg (nm) [2, 10] [nm] | Editing Mean % Indel [7] [%] | Serum TTR % TSS ([3]; guide G502, i.v. 0.1 mg/kg) [%] | Serum TTR ([3]; guide G502, i.v. 0.1 mg/kg) [µg/mL] | also measured
1 | CCCCC/C=C\C/C=C\CCCCCCCC(=O)OCC(COC(=O)CCC(OCCCCCCCC)OCCCCCCCC)COC(=O)NCCN(CC)CC (stereo not shown) [Compound 12, 3-((4,4-bis(octyloxy)butanoyl)oxy)-2-((((2-(diethylamino)ethyl)carbamoyl)oxy)methyl)propyl (9Z,12Z)-octadeca-9,12-dienoate] | – | – | – | – | – | – | – | – | % E (encapsulation efficiency) [1, 8]: 97%; Encapsulation (%) ([1]; LNP, sg:mRNA 1:1, N/P about 6, amine lipid/DSPC/cholesterol/PEG-2k-DMG 50/9/38/3, Table 2, Experiments 2-20): 83%; Number mean (nm) [2, 8]: 62 nm; PDI [2, 8]: 0.06; Z-avg (nm) [2, 8]: 80 nm; Number mean (nm) [2, 9]: 73.4 nm; PDI [2, 9]: 0.007; Z-avg (nm) [2, 9]: 88.53 nm; Serum TTR % TSS ([3]; guide G282 experiments): 81%; Serum TTR ([3]; guide G282 experiments, ELISA): 736 µg/mL; Editing Mean % Indel ([4]; i.v. 0.1 mg/kg): 37.6%; Editing Mean % Indel ([4]; i.v. 0.3 mg/kg): 62.5%; Serum TTR % TSS ([5]; G534, i.v. 0.1 mg/kg): 45.9 % TSS; Serum TTR % TSS ([5]; G534, i.v. 0.3 mg/kg): 5.5 % TSS; Serum TTR ([5]; i.v. 0.1 mg/kg): 744.2 µg/mL; Serum TTR ([5]; i.v. 0.3 mg/kg): 89.1 µg/mL
2 | CCCCC/C=C\C/C=C\CCCCCCCC(=O)OCC(COC(=O)CCC(OCCCCCCCC)OCCCCCCCC)COC(=O)OCCCN1CCCCC1 (stereo not shown) [Compound 102, 3-((4,4-bis(octyloxy)butanoyl)oxy)-2-((((3-(piperidin-1-yl)propoxy)carbonyl)oxy)methyl)propyl (9Z,12Z)-octadeca-9,12-dienoate] | 5.7 | 98 | 57 | 0.02 | 71 | 19.6 | 62.3 | 728.1 | –
3 | CCCCC/C=C\C/C=C\CCCCCCCC(=O)OCC(COC(=O)CCC(OCCCCCCCC)OCCCCCCCC)COC(=O)NCCN1CCCCCC1 (stereo not shown) [Compound 103, 3-(((2-(azepan-1-yl)ethyl)carbamoyl)oxy)-2-(((4,4-bis(octyloxy)butanoyl)oxy)methyl)propyl (9Z,12Z)-octadeca-9,12-dienoate] | 7 | 99 | 50 | 0.05 | 65 | 4.2 | 89.3 | 1043.8 | –

Now from value to molecule, other results behind:

Row | pKa [6] | % E ([1]; LNP) [%] | Number mean (nm) [2, 10] [nm] | PDI [2, 10] | Z-avg (nm) [2, 10] [nm] | Structure (SMILES) | Editing Mean % Indel [7] [%] | Serum TTR % TSS ([3]; guide G502, i.v. 0.1 mg/kg) [%] | Serum TTR ([3]; guide G502, i.v. 0.1 mg/kg) [µg/mL] | also measured
4 | 6.4 | 99 | 58 | 0.04 | 73 | CCCCC/C=C\C/C=C\CCCCCCCC(=O)OCC(COC(=O)CCC(OCCCCCCCC)OCCCCCCCC)COC(=O)NCCN1CCCCC1 (stereo not shown) [Compound 101, 3-((4,4-bis(octyloxy)butanoyl)oxy)-2-((((2-(piperidin-1-yl)ethyl)carbamoyl)oxy)methyl)propyl (9Z,12Z)-octadeca-9,12-dienoate] | 25.9 | 56.1 | 655.8 | –
5 | 6.13 | 96 | 72 | 0.02 | 87 | CCCCCCCCCCCCCCCCCC(=O)OCC(COC(=O)CCC(OCCCCCCCC)OCCCCCCCC)COC(=O)OCCCN(CC)CC (stereo not shown) [Compound 114, 3-((4,4-bis(octyloxy)butanoyl)oxy)-2-((((3-(diethylamino)propoxy)carbonyl)oxy)methyl)propyl stearate] | 18.04 | 88.4 | 978.01 | –
6 | 5.96 | 97 | 76 | 0.01 | 93 | CCCCCCCC/C=C\CCCCCCCC(=O)OCC(COC(=O)CCC(OCCCCCCCC)OCCCCCCCC)COC(=O)OCCCN(CC)CC (stereo not shown) [Compound 115, 3-((4,4-bis(octyloxy)butanoyl)oxy)-2-((((3-(diethylamino)propoxy)carbonyl)oxy)methyl)propyl oleate] | 19.68 | 73.8 | 816.3 | –
7 | 6.04 | 99 | 74 | 0 | 90 | CC/C=C\C/C=C\C/C=C\CCCCCCCC(=O)OCC(COC(=O)CCC(OCCCCCCCC)OCCCCCCCC)COC(=O)OCCCN(CC)CC (stereo not shown) [Compound 116, 3-((4,4-bis(octyloxy)butanoyl)oxy)-2-((((3-(diethylamino)propoxy)carbonyl)oxy)methyl)propyl (9Z,12Z,15Z)-octadeca-9,12,15-trienoate] | 34.48 | 51.3 | 567.09 | –
